The experiment deals with T1, recombinant sEH (Homo sapiens, UniProt P34913).
T1 construct: made in house; host or cells: Sf9 insect cells
T1 sequence (P34913 1-555): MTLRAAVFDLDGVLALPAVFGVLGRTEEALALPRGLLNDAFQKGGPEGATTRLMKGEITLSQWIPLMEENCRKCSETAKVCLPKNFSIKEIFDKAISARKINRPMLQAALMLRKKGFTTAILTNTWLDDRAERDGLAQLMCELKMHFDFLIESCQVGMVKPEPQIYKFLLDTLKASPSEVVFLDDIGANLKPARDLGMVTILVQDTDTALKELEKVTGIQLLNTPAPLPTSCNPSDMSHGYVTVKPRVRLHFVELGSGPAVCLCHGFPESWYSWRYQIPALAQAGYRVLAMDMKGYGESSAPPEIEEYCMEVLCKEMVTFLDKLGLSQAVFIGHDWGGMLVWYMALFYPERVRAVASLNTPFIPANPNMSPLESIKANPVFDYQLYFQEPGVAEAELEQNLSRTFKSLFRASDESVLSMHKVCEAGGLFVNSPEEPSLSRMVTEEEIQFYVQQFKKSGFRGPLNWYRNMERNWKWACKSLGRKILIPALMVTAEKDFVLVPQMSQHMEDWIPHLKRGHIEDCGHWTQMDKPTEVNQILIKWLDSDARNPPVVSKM
The experiment in a line: biochemical screening assay for inhibition of soluble epoxide hydrolase (fluorometric, Phome substrate). As to the method:
The ability of the compounds of the formula I to inhibit soluble epoxide hydrolase can be determined as follows:
Compounds were tested in a biochemical screening assay using recombinant sEH purified from Sf9 insect cells and an artificial substrate, (3-phenyl-oxiranyl)-acetic acid cyano-(6-methoxy-naphtalen-2-yl)-methyl ester, Phome. The biochemical assay was performed in analogy to a fluorometric method described in the literature (P. D. Jones et al., Anal. Biochem. 2005, 343, 66-75). The assay principle bases on the sEH-catalyzed hydrolysis of an artificial α-cyano-ester substrate. 0-deacetylation liberates a cyanohydrin intermediate that rapidly decomposes to the highly fluorescent 6-methoxy-2-naphtaldehyde. To discriminate sample autofluorescence, the assay was carried out as a kinetic measurement with two time points. The first measurement is performed immediately before addition of the substrate and the second measurement is done after completion of the assay. The assay format is either in 96- or in 384-well format. Details of the assay using a 96-well plate format are described below. 40 μL recombinant sEH enzyme and 5 μL test compound are pre-incubated for 15 minutes at 30° C. Following pre-incubation, the reaction is started by addition of 5 μL Phome. The assay mixture containing 2 nM final sEH concentration, test compound ranging in a concentration from 0.0001-10 μM and 5 μM Phome is incubated for 60 minutes at 30° C.
Fluorescence can be measured with any suitable detector for instance a TECAN Safire or Tecan Ultra at […]. % inhibition of recombinant sEH activity is used for calculation of corresponding IC50 values as illustrated and described in the examples.
The NCBI gene bank reference sequence with the accession number NM_001979 for EPHX2/sEH was applied for recombinant protein production:
The following commercially available materials have been used: • Incubation reagent: 25 mM Hepes (Sigma-Aldrich, Cat. No H-3375), 0.01% bovine albumin (Sigma-Aldrich Cat. No PA9205) • Substrate: 3-Phenyl-oxiranyl)-acetic acid cyano-(6-methoxy-naphtalen-2-yl)-methyl ester, Phome (Biozol Cat. No 10003134) • Microtiter plates: 96-well plates (Greiner Cat. No 655180; Costar Cat. No 3915)

A value given as a limit tells only on which side of the number the result lay.

The IC50 is the concentration that gives 50% inhibition. On to `O=C(NC1CCCCC1)N[C@H]1CO[C@H]2[C@@H]1OC[C@@H]2Sc1ccccn1` [Example 54, 1-Cyclohexyl-3-[(3S,3aR,6S,6aS)-6-(pyridin-2-ylsulfanyl)-hexahydro-furo[3,2-b]furan-3-yl]-urea], for which the IC50 is 1 nM.

Turning to `O=C(NC1CCCCC1)N[C@H]1CO[C@H]2[C@@H]1OC[C@@H]2Sc1cnccn1` [Example 55, 1-Cyclohexyl-3-[(3S,3aR,6S,6aS)-6-(pyrazin-2-ylsulfanyl)-hexahydro-furo[3,2-b]furan-3-yl]-urea], the IC50 is less than 1 nM.

With `O=C(NC1CCCCC1)N[C@H]1CO[C@H]2[C@@H]1OC[C@@H]2Sc1nccs1` [Example 56, 1-Cyclohexyl-3-[(3S,3aR,6S,6aS)-6-(thiazol-2-ylsulfanyl)-hexahydro-furo[3,2-b]furan-3-yl]-urea], the concentration for half-maximal inhibition (IC50) is 2 nM.

As for `Cc1ccc(S[C@H]2CO[C@H]3[C@@H]2OC[C@@H]3NC(=O)NC2CCCCC2)nn1` [Example 57, 1-Cyclohexyl-3-[(3S,3aR,6S,6aS)-6-(6-methyl-pyridazin-3-ylsulfanyl)-hexahydro-furo[3,2-b]furan-3-yl]-urea], the IC50 stood at 3 nM.

As for `Cc1csc(S[C@H]2CO[C@H]3[C@@H]2OC[C@@H]3NC(=O)NC2CCCCC2)n1` [Example 58, 1-Cyclohexyl-3-[(3S,3aR,6S,6aS)-6-(4-methyl-thiazol-2-ylsulfanyl)-hexa-hydro-furo[3,2-b]furan-3-yl]-urea], the concentration for half-maximal inhibition (IC50) stood at 2 nM.

`Cc1ccc(S[C@H]2CO[C@H]3[C@@H]2OC[C@@H]3NC(=O)NC2CCCCC2)nc1` [Example 59, 1-Cyclohexyl-3-[(3S,3aR,6S,6aS)-6-(5-methyl-pyridin-2-ylsulfanyl)-hexa-hydro-furo[3,2-b]furan-3-yl]-urea]: the IC50 stood at 2 nM.

As for `N#Cc1ccc(S[C@H]2CO[C@H]3[C@@H]2OC[C@@H]3NC(=O)NC2CCCCC2)nc1` [Example 60, 1-[(3S,3aR,6S,6aS)-6-(5-Cyano-pyridin-2-ylsulfanyl)-hexahydro-furo[3,2-b]furan-3-yl]-3-cyclohexyl-urea], the IC50 was 4 nM.

With `Cc1cc(S[C@H]2CO[C@H]3[C@@H]2OC[C@@H]3NC(=O)NC2CCCCC2)nc(C)n1` [Example 61, 1-Cyclohexyl-3-[(3S,3aR,6S,6aS)-6-(2,6-dimethyl-pyrimidin-4-ylsulfanyl)-hexahydro-furo[3,2-b]furan-3-yl]-urea], the 50% inhibitory concentration (IC50) was less than 1 nM.

As for `Cc1nc(S[C@H]2CO[C@H]3[C@@H]2OC[C@@H]3NC(=O)NC2CCCCC2)sc1C` [Example 62, 1-Cyclohexyl-3-[(3S,3aR,6S,6aS)-6-(4,5-dimethyl-thiazol-2-ylsulfanyl)-hexahydro-furo[3,2-b]furan-3-yl]-urea], the IC50 amounted to 1 nM.

On to `O=C(NC1CCCCC1)N[C@H]1CO[C@H]2[C@@H]1OC[C@@H]2Sc1ccc(Cl)cn1` [Example 63, 1-[(3S,3aR,6S,6aS)-6-(5-Chloro-pyridin-2-ylsulfanyl)-hexahydro-furo[3,2-b]furan-3-yl]-3-cyclohexyl-urea], for which the IC50 worked out at 1 nM.

For the molecule `O=C(NC1CCCCC1)N[C@H]1CO[C@H]2[C@@H]1OC[C@@H]2Oc1cnc(Cl)c(F)c1` [Example 64, 1-[(3S,3aR,6S,6aS)-6-(6-Chloro-5-fluoro-pyridin-3-yloxy)-hexahydro-furo[3,2-b]furan-3-yl]-3-cyclohexyl-urea], the IC50 is 2 nM.

As to `Cc1cc(O[C@H]2CO[C@H]3[C@@H]2OC[C@@H]3NC(=O)NC2CCCCC2)cnc1Cl` [Example 65, 1-[(3S,3aR,6S,6aS)-6-(6-Chloro-5-methyl-pyridin-3-yloxy)-hexahydro-furo[3,2-b]furan-3-yl]-3-cyclohexyl-urea], the IC50 was found to be 2 nM.

`Cc1cc(Cl)ncc1O[C@H]1CO[C@H]2[C@@H]1OC[C@@H]2NC(=O)NC1CCCCC1` [Example 66, 1-[(3S,3aR,6S,6aS)-6-(6-Chloro-4-methyl-pyridin-3-yloxy)-hexahydro-furo[3,2-b]furan-3-yl]-3-cyclohexyl-urea]: the IC50 turned out to be 2 nM.

The values are drawn from US9540391B2, “Isomannide derivatives as inhibitors of soluble epoxide hydrolase” (SANOFI, priority 2013, dated 2017).
